The values below come from US7579324B2, “Conjugates of biologically active compounds, methods for their preparation and use, formulation and pharmaceutical applications thereof” (c-a-i-r biosciences GmbH, priority 2002, dated 2009).

The experiment has as its system HeLa or JURKAT cells. The experiment can be described thus: Cytotoxicity assay (Alamar Blue) with guanosine rescue. The experiment is classed as cell-based. The procedure:
HeLa cells (DSMZ, ACC 57) and Jurkat cells (DSMZ, ACC 282) in exponential growth phase are exposed for 3 days to test compounds. The number of surviving cells is then determined by the Alamar Blue assay (Serotec Inc.). This assay incorporates a fluorometric growth indicator based on detection of metabolic activity. Specifically, the system incorporates an oxidation-reduction indicator that fluoresces in response to chemical reduction of the growth medium resulting from cell growth. As cells grow in culture, innate metabolic activity results in a chemical reduction of the immediate surrounding environment. Continued growth maintains a reduced environment while inhibition of growth maintains an oxidized environment. […] Fluorescence is monitored at 560 nm (Exc.) and 590 nm Em.
HeLa cells (1×10^3) or JURKAT cells (1×10^3) are plated in 100 μl MEM medium (with Earle's salt; Biochrom KG) containing 10% FBS, 2 mM L-glutamine, and non-essential animo acids in 96-well plates and incubated at 37° C. and 5% CO2 atmosphere. […] The fluorescence is then measured as described above and the LD50 is determined based on a sigmoidal dose response regression. […] Any toxicity still detected can then be ascribed either to other biological effects of the of T—L—C conjugate of mycophenolic acid, or is due to the very high intracellular concentration of mycophenolic acid, following concentrative uptake into the cell.
(In general: Alamar Blue is a resazurin reagent that responds to reducing activity.)

Where only a bound is given, the exact number is not on record here.

By IC50 is commonly meant the midpoint of a concentration-inhibition curve. Read a high IC50 as lower potency. As for `COc1c(C)c2c(c(O)c1C/C=C(\C)CCC(=O)O)C(=O)OC2` [Mycophenolic acid], the “effect in the presence of guanosine” value (50 μM guanosine in culture medium) is “completely removed”. This molecule also returned an IC50 (normal culture conditions, HeLa or JURKAT) of less than 2000 nM.
